Assay results from patent publication US20240382455A1, “COMPOSITION CONTAINING 1H-PYRAZOLE-3-AMIDE-BASED COMPOUND DERIVATIVE FOR PREVENTION OR TREATMENT OF FIBROSIS” (TSD LIFE SCIENCES CO., LTD., priority 2017, published 2024).

Columns and labels:
Format in all cases: in vivo, C57BL/6 mice
[1] = test system: αSMA, TGF-β1, COL6A3, and LOX mRNAs; assay: Quantitative real-time PCR on epididymal adipose tissue of fibrosis model mice; details: adipose tissue (FIG. 3); 10 mg/kg intraperitoneal for 4 weeks; almost similar to rimonabant 10 mg/kg positive control
Method: (§1) First, after stabilizing 5-week old male C57BL/6 mice for one week, a fibrosis model was constructed by feeding the mice with a high fat diet and a high-carbohydrate diet for 12 weeks, thereby inducing fibrosis of the mice. After that, the mice were divided into total four groups, and a vehicle (negative control group), 10mg/kg of rimonabant (positive control group), 10 mg/kg of a compound 1, and 10mg/kg of a compound 2 were administered to each of the groups by intraperitoneal injection for 4 weeks. In order to perform an experimental process, the mice were sacrificed, and epididymal adipose and liver tissues were extracted from the sacrificed mice.
(§2) After separating RNA from the extracted epididymal adipose and liver tissues by using a Trizol reagent (Gibco), cDNA templates were produced by using reverse transcriptase. After injecting such produced cDNA templates into SYBR green dyes by using gene-specific nucleotide primers, PCR products were analyzed to obtain analyzed mRNAs by amplifying the cDNA templates injected into SYBR green dyes with a real-time multiplexing amplification system (CFX connect™, Bio-Rad). At this time, the analyzed mRNAs were αSMA, TGF-β1, COL6A3, and LOX mRNAs, and used primer sequences are as described in the following [Table 1].

[2] = test system: collagen permeated into liver tissue of fibrosis model mice; assay: Picrosirius staining of liver tissue of fibrosis model mice; details: liver tissue (FIG. 4); high fat and high-carbohydrate diet mice; 10 mg/kg intraperitoneal for 4 weeks; compared to vehicle treatment group
Method: as §1
(§3) After fixing and embedding the extracted epididymal adipose and liver tissues, paraffin sections were manufactured by slicing the embedded epididymal adipose and liver tissues. After that, fibrosis degrees were analyzed by staining collagen permeated into each of the tissues by using a picrosirius red stain kit.

[3] = test system: collagen permeated into epididymal adipose tissue of fibrosis model mice; assay: Picrosirius staining of epididymal adipose tissue of fibrosis model mice; details: adipose tissue (FIG. 2); high fat and high-carbohydrate diet mice; 10 mg/kg intraperitoneal for 4 weeks; compared to vehicle treatment group
Method: as §1, §3

[4] = test system: αSMA, TGF-β1, COL6A3, and LOX mRNAs; assay: Quantitative real-time PCR on liver tissue of fibrosis model mice; details: liver tissue (FIG. 5); 10 mg/kg intraperitoneal for 4 weeks; almost similar to rimonabant 10 mg/kg positive control
Method: as §1, §2

SMILES	expression of four gene mRNAs (αSMA, TGF-β1, COL6A3, LOX) [1]	accumulation degrees stained with red color (picrosirius, collagen) [2]	accumulation degrees stained with red color (picrosirius, collagen) [3]	expression of four gene mRNAs (αSMA, TGF-β1, COL6A3, LOX) [4]
Cc1c(/C=C/C(=O)NCc2cccc(Cl)c2)nn(-c2ccc(Cl)cc2Cl)c1-c1ccc(Cl)cc1 [compound 1, (E)-N-(3-chlorobenzyl)-3-(5-(4-chlorophenyl)-1-(2,4-dichlorophenyl)-4-methyl-1H-pyrazole-3-yl)acrylamide]	inhibited	reduced	reduced	inhibited
Cc1c(C(=O)C(=O)NCCO)nn(-c2ccc(Cl)cc2Cl)c1-c1ccc(Cl)cc1 [compound 2, 2-(5-(4-chlorophenyl)-1-(2,4-dichlorophenyl)-4-methyl-1H-pyrazole-3-yl)-N-(2-hydroxyethyl)-2-oxo-acetamide]	inhibited	reduced	reduced	inhibited
